Test results as given in patent US20220356170A1, “SREBP INHIBITOR COMPRISING A THIOPHENE CENTRAL RING” (Capulus Therapeutics, LLC, priority 2019, published 2022).

System: HepG2 stably expressing LSS-Luciferase transgene (SREBP transcriptional activity)
Experiment: Reporter screening assay, SRE-luciferase reporter
Type: cell-based
Conditions: Homo sapiens, 0% FCS media, 24 hours
Method: The effect of Compound 1 on transcriptional activity SREBP was evaluated using an SRE-luciferase reporter construct.
After 24 hours incubation medium cells were treated with various Lovastatin concentrations (10 μM, 5 μM and 1 μM). After 24 hours treatment plates were covered with aluminum foil and frozen at −80° C. overnight. Plates were thawed to room temperature and Luciferase assay was performed. Cells were seeded in a 96 well plate in 10% FCS DMEM media and incubated for 24 hours. Then, they are switched to 0% FCS Media with Compound 1 or DMSO control for another 24 hours, at which point they are assayed for activity of LSS-reporter.
Reagents for performing Luciferase assay were stored at −20° C. To a tube of lyophilized assay substrate was added 1 mL Substrate Solvent and mixed well. The Substrate tube after reconstitution was covered with aluminum foil so as to keep it protected from light. […]
Using a multi-channel pipette, 100 μL Assay Solution (buffer+substrate) was added directly to each sample well in Plate 1, which was incubated for 30 min (plate was covered with aluminum foil). After 30 min incubation, the plate was read for total luminescence. Each well was read for 2 seconds in a plate luminometer. (Microplate reader Envision Microplate reader from Perkin Elmer). Precaution was taken to incubate plate exactly for 30 min prior to reading on the plate reader. […]

EC50: 150 nM
Structure (SMILES): CC(C)(O)c1cc(-c2csc(-c3ccc(C(=O)N4CCC(O)CC4)cc3Cl)c2)ccn1 [Compound 1, (3-chloro-4-(4-(2-(2-hydroxypropan-2-yl)pyridin-4-yl)thiophen-2-yl)phenyl)(4-hydroxypiperidin-1-yl)methanone]
